These are literature values, as cited in publication PMC10705946, “^225Ac-iPSMA-RGD for Alpha-Therapy Dual Targeting of Stromal/Tumor Cell PSMA and Integrins” (International Journal of Molecular Sciences, 2023).

Ends that are not written are not given here.

The data set relates to glioma cells. More on the design: method as in PMID 29611298. The settings on record: after 24 h of treatment, cells overexpressing the substance P receptor; cited from earlier work.

Consider “^225Ac-labeled substance P: ^225Ac-labeled ligand of the neurokinin-1 receptor (RPKPQQFFGLM; ends and bridges not checked; also: 225Ac radiolabel, attachment not given here; UniProt P20366 58-68, looked up)”, for which the “Increase of apoptotic cells” value was 25%.
